# Test results: the Deep4Chem optical property database
# Experiment: solvent given as SMILES
structure (smiles),measurement,setting,value
Cc1cc(C)c(B(c2ccc(-c3nc4c5ccccc5c5ccccc5c4[nH]3)cc2)c2c(C)cc(C)cc2C)c(C)c1,absorption maximum,in C1CCOC1,384 nm
same,absorption maximum,in CC(C)=O,380 nm
same,absorption maximum,in CS(C)=O,386 nm
same,absorption maximum,in Cc1ccccc1,381 nm
same,absorption maximum,in ClCCl,376 nm
c1ccc2c(c1)Cc1c-2sc2c1Cc1ccccc1-2,absorption maximum,in C1CCOC1,354 nm
CCC1=C(C)C2=Cc3cc4c(cc3B(O)N2C1=O)OCO4,absorption maximum,in CC#N,383 nm
same,absorption maximum,in CO,381 nm
same,absorption maximum,in CS(C)=O,384 nm
same,absorption maximum,in ClC(Cl)Cl,389 nm
Cc1sc(Cl)cc1-c1nc(-c2ccc(Cl)cc2)[nH]c1-c1cc(Cl)sc1C,absorption maximum,in CC#N,309 nm
C(=C\c1cc[n+]2ccc(/C=C/c3ccsc3)cc2c1)/c1ccsc1,absorption maximum,in CO,432 nm
F[B-]1(F)OC(c2ccccc2)=Cc2cc3[n+](c[n+]21)[B-](F)(F)OC(c1ccccc1)=C3,absorption maximum,in ClCCl,475 nm
CNC1=C2C=CC=[N+]2[B-](F)(F)n2cccc21,absorption maximum,in C1CCCCC1,418.5 nm
same,absorption maximum,in CC(C)=O,395.5 nm
same,absorption maximum,in CCO,397 nm
same,absorption maximum,in CCOC(C)=O,398.5 nm
same,absorption maximum,in CO,394.5 nm
same,absorption maximum,in OCC(F)(F)F,393 nm
c1ccc(N(c2ccccc2)c2ccc3c4cccc5c(N(c6ccccc6)c6ccccc6)ccc(c6cccc2c63)c54)cc1,absorption maximum,in C1CCCCC1,493 nm
same,absorption maximum,in C1CCOC1,489 nm
same,absorption maximum,in CC#N,483 nm
same,absorption maximum,in Cc1ccccc1,492 nm
same,absorption maximum,in ClCCl,490 nm
Cc1c(C)c(-c2cccnc2)c(C)c(C)c1B(c1c(C)c(C)c(-c2cccnc2)c(C)c1C)c1c(C)c(C)c(-c2cccnc2)c(C)c1C,absorption maximum,in ClCCl,330 nm
N#C/C(=N/Nc1ccc(C#N)cc1)c1nc(-c2ccccc2)cs1,absorption maximum,in CC#N,396 nm
same,absorption maximum,in CCO,398 nm
same,absorption maximum,in CN(C)C=O,477 nm
same,absorption maximum,in Cc1ccccc1,401 nm
same,absorption maximum,in ClCCl,399 nm
CC1=CC(C)=[N+]2C1=Cc1c3ccccc3c(C#Cc3cccs3)n1[B-]2(F)F,absorption maximum,in CCCCCC,621 nm
same,absorption maximum,in CCCCCCCCO,625 nm
same,absorption maximum,in CCOC(C)=O,620 nm
same,absorption maximum,in CN(C)C=O,626 nm
same,absorption maximum,in ClCCl,618 nm
CC(C)(C)C#Cc1cc2c(C#CC(C)(C)C)c(C#CC(C)(C)C)c3cc(C#CC(C)(C)C)cc4c(C#CC(C)(C)C)c(C#CC(C)(C)C)c(c1)c2c34,absorption maximum,in ClCCl,383 nm
COC(=O)c1cc(=O)n(C)c2cc(-c3cccc(OC)c3)sc12,absorption maximum,in CC#N,394 nm
same,absorption maximum,in ClCCl,394 nm
CCCCCc1ccc(-c2ccc(C#Cc3cc(C#Cc4ccc(-c5ccc(CCCCC)cc5)cc4)c4ccc5c(C(=O)c6ccccc6)cc(C#Cc6ccc(-c7ccc(CCCCC)cc7)cc6)c6ccc3c4c65)cc2)cc1,absorption maximum,in ClCCl,466 nm
COc1ccc2cc(/C=C/c3ccccc3)c(=O)oc2c1,absorption maximum,in CC#N,366 nm
CCCSC1=[N+]2C(=C(c3ccccc3)c3ccc(SCCC)n3[B-]2(F)F)C=C1,absorption maximum,in CC#N,574 nm
same,absorption maximum,in CCCCCC,577 nm
same,absorption maximum,in CCOC(C)=O,575 nm
same,absorption maximum,in CO,574 nm
same,absorption maximum,in ClCCl,579 nm
C(#Cc1nc2ccccc2s1)c1ccc(N(c2ccccc2)c2ccccc2)cc1,absorption maximum,in Cc1ccccc1,388 nm
c1ccc2c(c1)Oc1ccccc1N2c1ccc2c(c1)c1ccccc1n1ccnc21,absorption maximum,in Cc1ccccc1,376 nm
c1ccc2c3c(ccc2c1)-c1cc2ccccc2c2cccc-3c12,absorption maximum,in CCCCCCC,381 nm
CCN1\C(=C/C=C/C=C/C2=[N+](CC)c3ccc4cc(Br)ccc4c3C2(C)C)C(C)(C)c2c1ccc1cc(Br)ccc21,absorption maximum,in C1CCOC1,683 nm
same,absorption maximum,in CC#N,680 nm
same,absorption maximum,in CC(C)=O,682 nm
same,absorption maximum,in CCO,685 nm
same,absorption maximum,in CN(C)C=O,686 nm
same,absorption maximum,in CO,681 nm
same,absorption maximum,in CS(C)=O,689 nm
same,absorption maximum,in ClCCl,697 nm
c1ccc(-n2c(-c3ccc(-c4ccc5c(c4)C4(c6ccccc6-c6ccccc64)c4cc(-c6ccc(-c7nc8ccccc8n7-c7ccccc7)cc6)c6ccccc6c4-5)cc3)nc3ccccc32)cc1,absorption maximum,in ClC(Cl)Cl,359 nm
O=Cc1ccc(N(c2ccc(C=O)cc2)c2ccc(-c3ccc4c(c3)C(=O)c3ccccc3C4=O)cc2)cc1,absorption maximum,in C1CCOC1,374 nm
same,absorption maximum,in CCCCCC,368 nm
same,absorption maximum,in CCOC(C)=O,371 nm
same,absorption maximum,in CCOCC,369 nm
same,absorption maximum,in Cc1ccccc1,376 nm
same,absorption maximum,in ClC(Cl)(Cl)Cl,376 nm
same,absorption maximum,in ClCCl,379 nm
CC(=O)Nc1ccc(O)cc1,absorption maximum,in C1CCOC1,293 nm
same,absorption maximum,in CC#N,290 nm
same,absorption maximum,in CCCCO,290 nm
same,absorption maximum,in CO,290 nm
same,absorption maximum,in CS(C)=O,293 nm
CC[N+]1(CC)CN2C(=N1)C(C(=O)O)=Cc1cc(OC)ccc12,absorption maximum,in O,394 nm
CN(C)c1ccc(N2c3sc4ccccc4c3Sc3sc4ccccc4c32)cc1,absorption maximum,in ClCCl,319 nm
COc1ccc(-c2ccc3c(c2)c2cc(-c4ccc(OC)cc4)ccc2n3-c2ccc(C(=O)c3ccc4sc5ccccc5c4c3)nc2)cc1,absorption maximum,in Cc1ccccc1,390 nm
COc1cc(OC)c2cc(-c3ccccc3CC#N)c(=O)oc2c1,absorption maximum,in ClC(Cl)Cl,342 nm
O=c1oc2ccccc2cc1-c1cccc(-c2cc3ccccc3oc2=O)c1,absorption maximum,in ClC(Cl)Cl,330 nm
c1ccc2c3c(ccc2c1)-c1cccc2c1c-3cc1ccccc12,absorption maximum,in CCCCCCC,383 nm
CN(C)c1ccc(/C=C/c2ccnc(/C=C/c3ccc(N(C)C)cc3)n2)cc1,absorption maximum,in ClCCl,385 nm
Nc1cc2nc3cc(F)c(F)cc3nc2cc1N,absorption maximum,in CCO,433 nm
Fc1ccccc1N1c2c(sc3ccccc23)Sc2sc3ccccc3c21,absorption maximum,in ClCCl,353 nm
Cn1c(=O)nc2n(C)c3ccccc3nc-2c1=O,absorption maximum,in CC1CCCO1,460 nm
same,absorption maximum,in CC#N,437 nm
COC(=O)C(CCCCNC(=O)CCNc1cccc2ccccc12)NC(C)=O (centres undefined),absorption maximum,in CCO,330 nm
c1ccc2c(c1)-c1ccccc1C21c2ccccc2-c2cccnc21,absorption maximum,in CC1CCCO1,313 nm
O=C1c2ccccc2-c2cnccc21,absorption maximum,in CC#N,397.05 nm
same,absorption maximum,in CCCCCC,394.16 nm
[NH3+]c1ccc2c(c1)Cc1ccccc1-2,absorption maximum,in O,299 nm
CCCCCCCCCCn1c(-c2cc(-c3nc4ccc(C)cc4n3CCCCCCCCCC)cc(-c3nc4ccc(C)cc4n3CCCCCCCCCC)c2)nc2ccc(C)cc21,absorption maximum,in ClCCl,307.5 nm
CCCCc1ccc2ccc3c(CCCC)ccc4ccc1c2c43,absorption maximum,in CCCCCC,344 nm
same,absorption maximum,in CO,344 nm
same,absorption maximum,in ClCCl,347 nm
O=S1(=O)C2=C(c3ccc(-c4ccc(N(c5ccccc5)c5ccccc5)cc4)cc31)C1(C3=C(c4ccccc41)S(=O)(=O)c1cc(-c4ccc(N(c5ccccc5)c5ccccc5)cc4)ccc13)c1ccccc12,absorption maximum,in C1CCOC1,431 nm
same,absorption maximum,in CC#N,430 nm
same,absorption maximum,in CCCCCC,424 nm
same,absorption maximum,in Cc1ccccc1,438 nm
same,absorption maximum,in ClCCl,438 nm
CCCCCCCCOc1ccc(C#Cc2ccc(C#Cc3ccc(OCCCCCCCC)c(OCCCCCCCC)c3)c3nc4c5ccccc5c5ccccc5c4nc23)cc1OCCCCCCCC,absorption maximum,in C1CCOC1,461 nm
same,absorption maximum,in Cc1ccccc1,461 nm
same,absorption maximum,in ClCCl,461 nm
CC[n+]1c(-c2ccccc2)c2cc(N)ccc2c2ccc(N)cc21,absorption maximum,in O,480 nm
CN1\C(=C/C=C/C=C/C2=C3C=CC(c4ccccc4)=[N+]3[B-](F)(F)n3c2ccc3-c2ccccc2)C(C)(C)c2ccccc21,absorption maximum,in CC#N,771 nm
CCCCCCCCC1(CCCCCCCC)c2cc3c(cc2-c2sc(-c4ccc(/C=C5\SC(=S)N(CC)C5=O)c5nsnc45)cc21)C(CCCCCCCC)(CCCCCCCC)c1cc(-c2ccc(/C=C4\SC(=S)N(CC)C4=O)c4nsnc24)sc1-3,absorption maximum,in ClC(Cl)Cl,652 nm
COc1ccc2c(c1)CCc1c(-c3ccccc3)c3n(c1-2)[B-](F)(F)[N+]1=C2C(=C(c4ccccc4)C1=N3)CCc1ccccc12,absorption maximum,in ClC(Cl)Cl,723 nm
F[B-]1(F)OC(c2ccccc2)=Cc2cc(Cl)nc[n+]21,absorption maximum,in C1CCOC1,374 nm
same,absorption maximum,in CC#N,371 nm
same,absorption maximum,in CCCCCC,373 nm
same,absorption maximum,in Cc1ccccc1,377 nm
same,absorption maximum,in ClC(Cl)Cl,376 nm
same,absorption maximum,in ClCCl,375 nm
Cc1cc(C)c(B(c2c(C)cc(C)cc2C)c2c(C)cc(N3c4ccccc4Oc4ccccc43)cc2C)c(C)c1,absorption maximum,in Cc1ccccc1,399 nm
Cc1cccc2ccccc12,absorption maximum,in C1CCCCC1,293.94 nm
Clc1ncc(-c2c3ccccc3c(-c3cnc(Cl)nc3)c3ccccc23)cn1,absorption maximum,in CCO,394 nm
same,absorption maximum,in ClCCl,396 nm
Cc1c(COC(=O)c2ccccc2Br)n2c(OCC(=O)c3ccccc3Br)c(C)c(=O)n2c1=O,absorption maximum,in CCO,382 nm
CC(C)[Si](C#Cc1c2cc3ccccc3cc2c(C#C[Si](C(C)C)(C(C)C)C(C)C)c2cc3ccccc3cc12)(C(C)C)C(C)C,absorption maximum,in ClCCl,643 nm
Oc1ccccc1-c1nc2c3ccccc3c3ccccc3c2n1-c1ccccc1,absorption maximum,in Cc1ccccc1,335 nm
C=Cc1ccc(OC)c(OC)c1,absorption maximum,in C1CCCCC1,309 nm
c1ccc2c(c1)ncc1ccc3cnc4ccccc4c3c12,absorption maximum,in CC#N,397 nm
CN(C)c1ccc2nc(/C=C/c3ccccc3)c(=O)oc2c1,absorption maximum,in C1CCCCC1,438.5 nm
same,absorption maximum,in C1COCCO1,453 nm
same,absorption maximum,in CC#N,463 nm
same,absorption maximum,in CC(C)=O,462 nm
same,absorption maximum,in CCCCCCC,436 nm
same,absorption maximum,in CCO,466 nm
same,absorption maximum,in CCOC(C)=O,457 nm
same,absorption maximum,in CN(C)C=O,469 nm
same,absorption maximum,in CS(C)=O,475 nm
same,absorption maximum,in Cc1ccccc1,459.5 nm
same,absorption maximum,in ClC(Cl)Cl,467 nm
same,absorption maximum,in ClCCl,467.5 nm
c1ccc(N(c2ccccc2)c2c3ccccc3c(N(c3ccccc3)c3ccccc3)c3ccccc23)cc1,absorption maximum,in Cc1ccccc1,461 nm
CCCCn1c(-c2ccc(-c3nnc(-c4ccccc4)o3)cc2)nc(-c2ccccc2)c1-c1ccccc1,absorption maximum,in ClCCl,339 nm
O=C1NC(=O)c2ccc3c4ccc5c6c(ccc(c7ccc1c2c73)c64)C(=O)N(c1ccc(Cl)cc1)C5=O,absorption maximum,in CN(C)C=O,526 nm
c1ccc2cc(-c3c4ccccc4c(-c4ccc(-n5c6ccccc6c6ccccc65)cc4)c4ccccc34)ccc2c1,absorption maximum,in ClCCl,377 nm
CC(=O)[B-]1(C(C)=O)OC(c2ccc3ccccc3c2)=CC(c2ccc3ccccc3c2)=[O+]1,absorption maximum,in CC#N,420 nm
same,absorption maximum,in ClC(Cl)(Cl)Cl,415 nm
